According to ChEMBL document CHEMBL1240317, “Probing cell-division phenotype space and Polo-like kinase function using small molecules” (Nat Chem Biol, 2006):
Active and inactive are the calls of the source. How the calls were made is not given here.

Columns and labels:
Assay type in all cases: functional, cell-based
Settings in all cases: Chlorocebus aethiops
BSC-1 [1] = experiment: Induction of severe microtubule disruption in african green monkey BSC1 cells at 20 uM after 4 hrs by immunocytochemistry
BSC-1 [2] = experiment: Induction of reduced mitotic index in african green monkey BSC1 cells at 20 uM after 4 hrs by immunocytochemistry
BSC-1 [3] = experiment: Induction of deffects in mitotic spindle in african green monkey BSC1 cells at 20 uM after 4 hrs by immunocytochemistry

| Compound | Activity (BSC-1 [1]) | Activity (BSC-1 [2]) | Activity (BSC-1 [3]) |
| --- | --- | --- | --- |
| CC(=O)Nc1ccc(Nc2ccnc(Nc3ccc(Cl)cc3Cl)n2)cc1 | Active |  |  |
| CN1CCN(c2ccnc(Cl)n2)CC1 | Active | Active | Active |
| CC(C)(C)c1ccc(Nc2nccc(-n3ccnc3-c3ccccc3)n2)cc1 |  |  | Active |
| O=[N+]([O-])c1cnc(Nc2ccc3ccccc3c2)nc1Nc1ccc(Cl)c(Cl)c1 | Active | Active | Active |
| O=C(c1ccccc1)c1ccccc1Nc1nc(NC2CCCC2)ncc1[N+](=O)[O-] | Active | Active | Active |
| CCCCNc1ncc([N+](=O)[O-])c(Nc2ccc3[nH]ccc3c2)n1 | Active | Active | Active |
| CC(C)(Nc1ncc([N+](=O)[O-])c(NC2CCCC2)n1)c1ccccc1 | Active | Active | Active |
| c1ccc2cc(Nc3nccc(Nc4ccc5c(c4)OCO5)n3)ccc2c1 | Active | Active | Active |
| O=C(c1ccccc1)c1ccccc1Nc1nc(NCc2cccs2)ncc1[N+](=O)[O-] |  | Active |  |
| O=[N+]([O-])c1cnc(-n2ccnc2-c2ccccc2)nc1NC1CCCC1 | Active | Active | Active |
| CN1CCN(c2ccc(Nc3ncc([N+](=O)[O-])c(Nc4ccc(Cl)c(Cl)c4)n3)cc2)CC1 | Active | Active | Active |
| CN1CCN(c2ccnc(Sc3cccc(Cl)c3)n2)CC1 |  |  | Active |
| O=C(c1ccccc1)c1ccccc1Nc1nc(NC(CO)Cc2ccccc2)ncc1[N+](=O)[O-] (stereo unspecified) |  |  | Active |
| O=[N+]([O-])c1cnc(Nc2ccc3ncsc3c2)nc1Nc1ccc(Cl)c(Cl)c1 | Active | Active | Active |
| O=[N+]([O-])c1cnc(Nc2ccc3ccccc3c2)nc1Nc1ccc2ncsc2c1 |  |  | Active |
| O=C(c1ccccc1)c1ccccc1Nc1nc(Nc2ccc(Cl)c(Cl)c2)ncc1[N+](=O)[O-] | Active | Active | Active |
| CCCCNc1ncc([N+](=O)[O-])c(Nc2ccccc2C(N)=O)n1 | Active | Active | Active |
| CCCCNc1ncc([N+](=O)[O-])c(Nc2ccccc2C(=O)c2ccccc2)n1 | Active | Active | Active |
| CC(C)(C)c1ccc(Nc2ncc([N+](=O)[O-])c(NC3CCCC3)n2)cc1 | Active | Active | Active |

| Compound | Activity (BSC-1 [1]) | Activity (BSC-1 [2]) | Activity (BSC-1 [3]) |
| --- | --- | --- | --- |
| COc1cc(Nc2ncc([N+](=O)[O-])c(Nc3ccccc3C(N)=O)n2)cc(OC)c1OC | Active |  |  |
| CC(C)CC(CO)Nc1ncc([N+](=O)[O-])c(Nc2ccc3ncsc3c2)n1 (stereo unspecified) | Active | Active | Active |
| CC(=O)Nc1ccc(Nc2ccnc(Nc3ccncc3)n2)cc1 | Active | Active | Active |
| CC(C)(C)c1ccc(Nc2ncc([N+](=O)[O-])c(Nc3ccc(Cl)c(Cl)c3)n2)cc1 | Active | Active | Active |
| CCCCNc1ncc([N+](=O)[O-])c(NC2CCCC2)n1 | Active | Active | Active |
| O=[N+]([O-])c1cnc(NC2CCCC2)nc1Nc1ccc2[nH]ccc2c1 | Active | Active | Active |
| CC(=O)Nc1ccc(Nc2ccnc(NC(CO)Cc3ccccc3)n2)cc1 (stereo unspecified) | Active | Active | Active |
| NC(=O)c1ccccc1Nc1nc(NCCCN2CCCC2=O)ncc1[N+](=O)[O-] | Active | Active | Active |
| O=C(c1ccccc1)c1ccccc1Nc1nc(NCCCN2CCCC2=O)ncc1[N+](=O)[O-] |  |  | Active |
| Clc1ccc(Nc2nccc(Nc3ccc4c(c3)CCC4)n2)cc1Cl |  |  | Active |
| O=[N+]([O-])c1cnc(Nc2ccc3[nH]ccc3c2)nc1Nc1ccc2ncsc2c1 |  |  | Active |
| c1cc(Nc2nccc(Nc3ccc4c(c3)CCC4)n2)ccn1 | Active | Active | Active |
| CCN(CC)CCCC(C)Nc1ncc([N+](=O)[O-])c(NC2CCCC2)n1 (stereo unspecified) | Active | Active | Active |
| O=[N+]([O-])c1cnc(NC2CCCCCC2)nc1Nc1ccc(Cl)c(Cl)c1 | Active | Active | Active |
| O=[N+]([O-])c1cnc(Nc2ccc(Cl)c(Cl)c2)nc1Nc1ccc2[nH]ccc2c1 | Active | Active | Active |
| O=[N+]([O-])c1cnc(Nc2ccc3c(c2)CCC3)nc1Nc1ccc(Cl)c(Cl)c1 | Active | Active | Active |
| c1ccc(-c2nccn2-c2ccnc(Nc3ccc4ncsc4c3)n2)cc1 | Active |  |  |
| O=[N+]([O-])c1cnc(Cl)nc1NC1CCCC1 |  |  | Active |
| O=[N+]([O-])c1cnc(Nc2cccc3ncccc23)nc1Nc1ccc2ncsc2c1 | Active |  |  |

| Compound | Activity (BSC-1 [1]) | Activity (BSC-1 [2]) | Activity (BSC-1 [3]) |
| --- | --- | --- | --- |
| CCCCNc1nc(Nc2ccc(NC(C)=O)cc2)ncc1[N+](=O)[O-] |  |  | Active |
| CC(C)(C)c1ccc(Nc2ncc([N+](=O)[O-])c(Nc3ccc4ncsc4c3)n2)cc1 |  |  | Active |
| CC(=O)Nc1ccc(Nc2ccnc(Nc3ccc4ccccc4c3)n2)cc1 | Active |  |  |
| CC(=O)Nc1ccc(Nc2nccc(Nc3ccc4[nH]ccc4c3)n2)cc1 | Active |  |  |
| CN1CCN(c2ccc(Nc3ncc([N+](=O)[O-])c(Nc4ccccc4C(N)=O)n3)cc2)CC1 | Active |  |  |
| CC(=O)Nc1ccc(Nc2ccnc(Nc3ccc(C(C)(C)C)cc3)n2)cc1 | Active |  |  |
| Cc1cc(Nc2cc(C3CC3)[nH]n2)nc(Nc2ccc(CC#N)cc2)n1 | Active |  |  |
| CC(=O)Nc1ccc(Nc2ccnc(Nc3ccc4ncsc4c3)n2)cc1 | Active |  |  |
| O=[N+]([O-])c1cnc(Nc2ccc(Cl)c(Cl)c2)nc1Nc1ccc2ncsc2c1 |  |  | Active |
| CC(C)(C)c1ccc(Nc2ncc([N+](=O)[O-])c(Nc3ccccc3C(N)=O)n2)cc1 | Active |  |  |
| CC(=O)Nc1ccc(Nc2ncc([N+](=O)[O-])c(Nc3ccccc3C(N)=O)n2)cc1 |  |  | Active |
| CC(C)(Nc1ncc([N+](=O)[O-])c(Nc2ccccc2C(N)=O)n1)c1ccccc1 | Active |  |  |
| O=[N+]([O-])c1cnc(-n2ccnc2-c2ccccc2)nc1Nc1ccc2ncsc2c1 |  |  | Active |
| COc1cc(Nc2ncc([N+](=O)[O-])c(Nc3ccc4c(c3)OCO4)n2)cc(OC)c1OC | Active |  |  |
| O=[N+]([O-])c1cnc(Nc2ccncc2)nc1NC1CCCC1 | Active |  |  |
| COc1ccc(Nc2ncc([N+](=O)[O-])c(Nc3ccc4[nH]ccc4c3)n2)cc1 | Active |  |  |
| CC(=O)Nc1ccc(Nc2ncc([N+](=O)[O-])c(NC3CCCC3)n2)cc1 |  | Active |  |
| c1cc(Nc2ccc3c(c2)OCO3)nc(Nc2ccc3ncsc3c2)n1 | Active |  |  |
